A word on the CC50: it is the concentration that lowers cell viability or growth by half. By EC50 is commonly meant the concentration at which the effect is half-maximal.

This note sets out measurements from ChEMBL document CHEMBL3994570, “Euphorbia dendroides Latex as a Source of Jatrophane Esters: Isolation, Structural Analysis, Conformational Study, and Anti-CHIKV Activity” (J Nat Prod, 2016).

In series [1] the test system is Chikungunya virus. The series can be described thus: Antiviral activity against Chikungunya virus 899 infected in African green monkey Vero cells assessed as inhibition of virus-induced cytopathic effect after 6 to 7 days by MTS assay. The settings on record: for EC50: Chikungunya virus, 899, Vero. It is filed as functional. On the technique in general: Damage to the host cells serves as the signal in cytopathic effect assays.

Series [2] relates to Vero. Kind of series: (§1) Cytotoxicity against African green monkey Vero cells assessed as reduction in metabolic activity by MTS assay. The settings on record: chlorocebus sabaeus, vero. It is filed as ADME, cell-based.
Series [3] is described as follows: Selectivity index, ratio of CC50 for African green monkey Vero cells to EC50 for Chikungunya virus 899 infected in African green monkey Vero cells. The note with it: read-out: Ratio CC50/EC50. It is filed as toxicity.
Series [4] in a line: as §1. It is filed as ADME, cell-based. The note with it: chlorocebus sabaeus, Vero cells.

SMILES strings stand for the structures. The source made the active and inactive calls. The rule behind the calls is not given here.

As for `CC(=O)O[C@H]1[C@@H](OC(C)=O)C(C)(C)/C=C/[C@@](C)(O)C(=O)[C@@]2(OC(C)=O)C[C@@](C)(OC(C)=O)[C@H](OC(C)=O)[C@@H]2[C@H]2OC(=O)CC[C@@]2(OC(C)=O)[C@@H]1OC(=O)C(C)C`, the inhibition result in series [1] is “inactive”.

On to `C=C1[C@H](O)[C@H]2[C@@H](OC(=O)c3ccccc3)[C@](C)(O)C[C@]2(O)C(=O)[C@@H](C)/C=C/C(C)(C)[C@H](OC(C)=O)[C@H](OC(C)=O)[C@H]1OC(=O)c1ccccc1`, for which the inhibition result in series [1] is “inactive”.

In the case of `C=C1[C@H](OC(=O)c2ccccc2)[C@@H](OC(C)=O)[C@@H](OC(C)=O)C(C)(C)/C=C/[C@H](C)C(=O)[C@@]2(O)C[C@@](C)(OC(C)=O)[C@H](O)[C@@H]2[C@H]1OC(=O)c1ccccc1`, in series [2], the Activity result is “Non-Toxic”. In series [1], the inhibition result was “inactive”.

On to `C=C1[C@H](OC(=O)c2ccccc2)[C@@H](O)[C@@H](OC(C)=O)C(C)(C)/C=C/[C@H](C)C(=O)[C@@]2(O)C[C@@](C)(OC(C)=O)[C@H](O)[C@@H]2[C@H]1OC(=O)c1ccccc1`, for which the Activity entry in series [2] is recorded as “Non-Toxic”. Further, the inhibition result in series [1] was “inactive”.

For `C=C1[C@H](OC(=O)C(C)C)[C@@H](OC(C)=O)[C@@H](OC(C)=O)C(C)(C)/C=C/[C@H](C)C(=O)[C@@]2(O)C[C@@](C)(OC(C)=O)[C@H](OC(=O)c3ccccc3)[C@@H]2[C@H]1OC(=O)C(C)C`, the inhibition result in series [1] is “inactive”.

As to `C=C1[C@H](C(=O)C(C)C)[C@H]2[C@@H](OC(C)=O)[C@](C)(O)C[C@]2(O)C(=O)[C@@H](C)/C=C/C(C)(C)[C@H](OC(C)=O)[C@H](OC(C)=O)[C@H]1OC(=O)c1ccccc1`, the inhibition entry in series [1] is “inactive”.

Turning to `CC(=O)O[C@H]1[C@@H](OC(C)=O)C(C)(C)/C=C/[C@H](C)C(=O)[C@@]2(OC(C)=O)C[C@@](C)(OC(C)=O)[C@H](O)[C@@H]2[C@H]2OC(=O)CC[C@@]2(OC(C)=O)[C@@H]1OC(=O)C(C)C`, the inhibition entry in series [1] was “inactive”.

Consider `C=C1[C@H](OC(=O)c2ccccc2)[C@@H](OC(C)=O)[C@@H](OC(C)=O)C(C)(C)/C=C/[C@H](C)C(=O)[C@@]2(O)C[C@@](C)(OC(C)=O)[C@H](O)[C@@H]2[C@H]1OC(=O)C(C)CC` (some centres not stated), for which the Activity result in series [2] is “Non-Toxic”. In addition, the inhibition result in series [1] is “inactive”.

Regarding `CC(=O)O[C@H]1[C@@H](OC(C)=O)C(C)(C)/C=C/[C@@](C)(O)C(=O)[C@@]2(O)C[C@@](C)(OC(C)=O)[C@H](OC(C)=O)[C@@H]2[C@H]2OC(=O)CC[C@@]2(OC(C)=O)[C@@H]1OC(=O)C(C)C`, the inhibition result in series [1] is “inactive”.

Take `C=C1[C@H](OC(=O)c2ccccc2)[C@@H](OC(C)=O)[C@@H](OC(C)=O)C(C)(C)/C=C/[C@H](C)C(=O)[C@@]2(O)C[C@@](C)(OC(C)=O)[C@H](OC(=O)C(C)C)[C@@H]2[C@H]1OC(=O)C(C)C`: the inhibition result in series [1] was “inactive”.

`C=C1[C@H](OC(=O)c2ccccc2)[C@@H](OC(C)=O)[C@@H](OC(C)=O)C(C)(C)/C=C/[C@H](C)C(=O)[C@@]2(O)C[C@@](C)(OC(C)=O)[C@H](O)[C@@H]2[C@H]1OC(=O)C(C)C`: the inhibition entry in series [1] is “inactive”.

With `C=C1[C@H](OC(=O)c2ccccc2)[C@@H](OC(C)=O)[C@@H](OC(C)=O)C(C)(C)/C=C/[C@H](C)C(=O)[C@@]2(O)C[C@@](C)(OC(C)=O)[C@H](OC(C)=O)[C@@H]2[C@H]1OC(=O)C(C)C`, the inhibition entry in series [1] is “inactive”.

On to `CC(=O)O[C@H]1[C@@H](OC(C)=O)C(C)(C)/C=C/[C@H](C)C(=O)[C@@]2(O)C[C@@](C)(OC(C)=O)[C@H](OC(C)=O)[C@@H]2[C@H]2OC(=O)CC[C@@]2(OC(=O)C(C)C)[C@@H]1OC(=O)C(C)C`, for which, in series [3], the selectivity ratio was 2.4. In addition, the CC50 in series [4] turned out to be 36 µM. In addition, the EC50 in series [1] came out at 15 µM.

As to `C=C1[C@H](OC(=O)C(C)C)[C@@H](OC(C)=O)[C@@H](OC(C)=O)C(C)(C)/C=C/[C@H](C)C(=O)[C@@]2(O)C[C@@](C)(OC(C)=O)[C@H](OC(=O)COC(=O)c3ccccc3)[C@@H]2[C@H]1OC(C)=O`, the selectivity ratio in series [3] came to 3.2. Further, the CC50 in series [4] is 17.7 µM. The EC50 in series [1] worked out at 5.5 µM.

On to `C=C1[C@H](C(=O)C(C)C)[C@H]2[C@@H](OC(C)=O)[C@@H](C)C[C@]2(O)C(=O)[C@@H](C)/C=C/C(C)(C)[C@H](OC(C)=O)[C@H](OC(C)=O)[C@H]1OC(=O)c1ccccc1`, for which the inhibition entry in series [1] was “inactive”.
